Series [1] concerns the target T1, AhR (Mus musculus, UniProt P30561).
T1 sequence (P30561 1-848): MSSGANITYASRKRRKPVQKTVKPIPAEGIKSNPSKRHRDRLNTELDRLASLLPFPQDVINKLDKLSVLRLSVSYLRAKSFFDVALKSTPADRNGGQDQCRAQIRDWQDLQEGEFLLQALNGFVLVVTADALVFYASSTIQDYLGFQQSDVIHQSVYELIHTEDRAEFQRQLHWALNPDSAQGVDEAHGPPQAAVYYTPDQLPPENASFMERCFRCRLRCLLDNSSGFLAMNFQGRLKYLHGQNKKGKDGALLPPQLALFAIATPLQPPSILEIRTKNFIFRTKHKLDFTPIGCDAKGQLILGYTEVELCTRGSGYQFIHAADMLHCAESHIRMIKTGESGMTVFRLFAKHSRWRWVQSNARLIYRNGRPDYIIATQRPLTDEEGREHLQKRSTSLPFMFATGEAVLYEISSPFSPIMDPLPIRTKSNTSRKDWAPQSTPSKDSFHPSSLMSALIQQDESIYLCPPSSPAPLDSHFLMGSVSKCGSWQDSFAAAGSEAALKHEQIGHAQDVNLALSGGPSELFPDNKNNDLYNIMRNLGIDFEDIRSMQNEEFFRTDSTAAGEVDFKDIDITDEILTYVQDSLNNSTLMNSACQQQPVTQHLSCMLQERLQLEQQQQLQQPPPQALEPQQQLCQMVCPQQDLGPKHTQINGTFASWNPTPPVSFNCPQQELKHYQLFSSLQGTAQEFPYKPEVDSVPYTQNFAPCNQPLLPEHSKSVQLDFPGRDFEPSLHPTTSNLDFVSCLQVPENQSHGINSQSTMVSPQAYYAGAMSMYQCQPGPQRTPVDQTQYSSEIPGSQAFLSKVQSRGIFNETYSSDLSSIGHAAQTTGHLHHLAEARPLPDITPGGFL
As to the kind of experiment: In Vitro Assay 2: XRE-luciferase reporter assay, antagonism in mouse cell line (Hepa1c1c7). The class given is cell-based. Particulars: 6 hours, read-out: Assay 2: AhR-Luc Mouse Antagonism (IC50). On the procedure: In Vitro Assay 2: Antagonism in Mouse Cell Line
Hepa1c1c7 (murine liver cancer cell line) cells co-transfected with XRE-Luc and Nano-Luc plasmids were plated in complete medium and incubated overnight at 37° C. in a CO2 incubator. Following incubation, cells were treated with AhR activating ligands such as kynurenic acid, kynurenine (#) with or without test compounds for 6 hours.

Series [2] concerns the target T2, AhR (Homo sapiens, UniProt P35869).
T2 sequence (P35869 11-848): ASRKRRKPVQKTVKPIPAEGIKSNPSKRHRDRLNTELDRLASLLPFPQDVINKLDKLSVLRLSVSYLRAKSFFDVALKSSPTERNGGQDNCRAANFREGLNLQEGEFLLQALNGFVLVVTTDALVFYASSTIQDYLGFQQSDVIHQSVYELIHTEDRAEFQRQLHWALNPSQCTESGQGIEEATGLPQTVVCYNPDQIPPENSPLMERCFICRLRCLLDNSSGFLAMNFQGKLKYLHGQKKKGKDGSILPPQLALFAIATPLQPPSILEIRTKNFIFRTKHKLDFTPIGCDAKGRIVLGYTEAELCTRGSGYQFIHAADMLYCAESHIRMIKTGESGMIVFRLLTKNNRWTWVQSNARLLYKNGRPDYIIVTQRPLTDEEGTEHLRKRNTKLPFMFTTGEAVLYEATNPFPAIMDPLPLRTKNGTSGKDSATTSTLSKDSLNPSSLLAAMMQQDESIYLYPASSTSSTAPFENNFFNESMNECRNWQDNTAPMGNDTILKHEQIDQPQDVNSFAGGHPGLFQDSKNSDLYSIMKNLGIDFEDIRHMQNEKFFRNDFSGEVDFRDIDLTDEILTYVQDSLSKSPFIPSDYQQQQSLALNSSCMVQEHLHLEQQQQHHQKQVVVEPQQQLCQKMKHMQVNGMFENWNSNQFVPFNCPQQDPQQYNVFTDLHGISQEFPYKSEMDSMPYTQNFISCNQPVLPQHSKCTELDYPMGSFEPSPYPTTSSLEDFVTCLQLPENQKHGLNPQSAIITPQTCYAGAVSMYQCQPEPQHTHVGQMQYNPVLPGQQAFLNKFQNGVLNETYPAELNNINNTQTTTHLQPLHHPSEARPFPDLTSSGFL
The series is described as follows: In Vitro Assay 3: XRE-luciferase reporter assay, agonism in human cell line (HepG2). The class given is cell-based. Details: endogenous in cells; host or cells: HepG2. Particulars: HepG2, tryptophan free medium, 6 hours, no agonist, read-out: Assay 3: AhR-Luc Human Agonism (EC50). On the procedure: In Vitro Assay 3: Agonism in Human Cell Line
HepG2 (human hepatoma cell line) cells co-transfected with XRE-Luc and Nano-Luc plasmids were plated in tryptophan free medium containing 1% of dialyzed fetal bovine serum and incubated overnight at 37° C. in a CO2 incubator. After 24 hours, cells were treated for 6 hours with test compounds or not. […] As a positive control, cells were incubated with TCDD.
(In general: Reporter assays use an easily measured gene product as a stand-in for the process of interest.)

The target of series [3] is T2, AhR. As to the kind of experiment: In Vitro Assay 1: XRE-luciferase reporter assay, antagonism in human cell line (HepG2).
Series [4] concerns the target T2, AhR. As to the kind of experiment: In Vitro Assay 4: endogenous AhR activity assay (CYP1A1 and CYP1B1 mRNA, qRT-PCR, HepG2 cells). On the technique in general: In qPCR the cycle at which signal appears reflects the starting amount.
Method: In Vitro Assay 4: Endogenous AhR Activity Assay
HepG2 cells were seeded in 12-well plate (3×10^5 cells/well). A day after seeding, the cells were treated with TCDD (10 nM) alone or with compounds (123 nM) for 4 hours. Total RNA was extracted using Trizol (Thermo Fisher Scientific). cDNA synthesis and quantitative RT-PCR (qRT-PCR) assays were performed using PrimeScript™ RT Master Mix (TAKARA) and TB Green™ Premix Ex Taq™ II (TAKARA) in accordance with manufacturer's instruction. For the measurement of endogenous AhR activity, relative mRNA levels of CYP1A1 and CYP1B1 were quantitated relative to β-actin mRNA by the comparative Ct (ΔΔCt) method. The percent inhibitions were calculated according to:
[5] abbreviates: values marked #: AhR activating ligand kynurenine.
[6] abbreviates: Assay 1: AhR-Luc Human Antagonism (IC50, nM), values marked *: kynurenine 50 μM, 6 hours.
Setting [7] is: Assay 1: AhR-Luc Human Antagonism (IC50, nM), unmarked values: kynurenine 200 μM, 6 hours.
[8] abbreviates: HepG2, read-out: CYP1A1 (% Inhibition).
[9] abbreviates: HepG2, read-out: CYP1B1 (% Inhibition).
Where [10] appears, read: unmarked values: AhR activating ligand kynurenic acid.

Like-named read-outs stand apart in the source and are kept apart here.

The text below walks through data of patent US20230150970A1, “AMINOPYRIMIDINE DERIVATIVES AND THEIR USE AS ARYL HYDROCARBON RECEPTOR MODULATORS” (DONG-A ST CO., LTD., priority 2020, published 2023).

Turning to `CN1CCN(C2CCN(c3cc(-c4ccc(Cl)cc4)nc(-c4cccnc4)n3)CC2)CC1` [Example 92, 4-(4-chlorophenyl)-6-(4-(4-methylpiperazin-1-yl)piperidin-1-yl)-2-(pyridin-3-yl)pyrimidine], the IC50 at AhR [1] (setting [5]) lay within 100 to 1000 nM; on AhR [3] (setting [6]), 10 to 100 nM. Also, the half-maximal effective concentration (EC50) at AhR [2] (class in brackets of the cell) is greater than 10000 nM; on AhR [2] (number of the cell) it was greater than 30000 nM.

As to `CS(=O)(=O)N1CCN(c2cc(-c3ccc(Cl)cc3)nc(-c3cccnc3)n2)CC1` [Example 107, 4-(4-chlorophenyl)-6-(4-(methylsulfonyl)piperazin-1-yl)-2-(pyridin-3-yl)pyrimidine], the half-inhibitory concentration (IC50) was 10 to 100 nM on AhR [1] (setting [5]) and less than 10 nM against AhR [3] (setting [7]). Further, the EC50 was greater than 10000 nM at AhR [2] (class in brackets of the cell) and greater than 30000 nM on AhR [2] (number of the cell).

Regarding `CC(=O)NC1CCN(c2cc(-c3ccc(Cl)cc3)nc(-c3cccnc3)n2)C1` (stereo not shown) [Example 143, N-(1-(6-(4-chlorophenyl)-2-(pyridin-3-yl)pyrimidin-4-yl)pyrrolidin-3-yl)acetamide], the IC50 is 100 to 1000 nM at AhR [1] (setting [5]) and less than 10 nM against AhR [3] (setting [6]). Moreover, the values for the concentration for a half-maximal effect (EC50) on AhR [2] (class in brackets of the cell) and at AhR [2] (number of the cell) were greater than 10000 nM and greater than 30000 nM, respectively.

Consider `CC(=O)N1CCC(CNc2cc(-c3ccc(Cl)cc3)nc(-c3cccnc3)n2)CC1` [Example 154, 1-(4-(((6-(4-chlorophenyl)-2-(pyridin-3-yl)pyrimidin-4-yl)amino)methyl)piperidin-1-yl)ethan-1-one], for which the figures for the IC50 on AhR [1] (setting [5]) and on AhR [3] (setting [6]) were 10 to 100 nM and less than 10 nM, respectively. The EC50 is greater than 10000 nM on AhR [2] (class in brackets of the cell) and greater than 30000 nM at AhR [2] (number of the cell).

As for `O[C@H]1CC[C@@H](Nc2cc(-c3ccc(Cl)cc3)nc(-c3cccnc3)n2)C1` [Example 162, (1S,3R)-3-((6-(4-chlorophenyl)-2-(pyridin-3-yl)pyrimidin-4-yl)amino)cyclopentan-1-ol], the figures for the IC50 at AhR [1] (setting [5]) and against AhR [3] (setting [6]) were 100 to 1000 nM and less than 10 nM, respectively. Moreover, the values for the EC50 on AhR [2] (class in brackets of the cell) and on AhR [2] (number of the cell) were greater than 10000 nM and greater than 30000 nM, respectively.

Turning to `Cc1ccc(-c2cc(N3CCC(CO)CC3)nc(-c3cccnc3)n2)cc1` [Example 229, (1-(2-(pyridin-3-yl)-6-(p-tolyl)pyrimidin-4-yl)piperidin-4-yl)methanol], the EC50 was greater than 10000 nM at AhR [2] (class in brackets of the cell) and greater than 30000 nM on AhR [2] (number of the cell). In addition, the half-inhibitory concentration (IC50) against AhR [3] (setting [7]) lay within 10 to 100 nM. In addition, the inhibition at 0.123 µM on AhR [4] (setting [8]) came out at 108%; on AhR [4] (setting [9]), 101%.

Turning to `CC(=O)N1CCCN(c2cc(-c3ccc(Cl)cc3)nc(-c3cccnc3)n2)C1` [Example 232, 1-(3-(6-(4-chlorophenyl)-2-(pyridin-3-yl)pyrimidin-4-yl)tetrahydropyrimidin-1 (2H)-yl)ethan-1-one], the IC50 on AhR [1] (setting [5]) is greater than 1000 nM; against AhR [3] (setting [6]), less than 10 nM. Also, the values for the inhibition at 0.123 µM on AhR [4] (setting [8]) and on AhR [4] (setting [9]) were 100% and 99.8%, respectively.

`OCC1CN(c2cc(-c3ccc(Cl)cc3)nc(-c3cccnc3)n2)CC1O` (stereo not shown) [Example 236, 1-(6-(4-chlorophenyl)-2-(pyridin-3-yl)pyrimidin-4-yl)-4-(hydroxymethyl)pyrrolidin-3-ol]: the IC50 was 100 to 1000 nM at AhR [1] (setting [5]) and less than 10 nM at AhR [3] (setting [6]). The EC50 at AhR [2] (number of the cell) was 40.1 nM.

For `CC(=O)N[C@@H]1CN(c2cc(-c3ccc(Cl)cc3)nc(-c3cccnc3)n2)C[C@@H]1O` [Example 243, N-((3R,4S)-1-(6-(4-chlorophenyl)-2-(pyridin-3-yl)pyrimidin-4-yl)-4-hydroxypyrrolidin-3-yl)acetamide], the IC50 at AhR [1] (setting [5]) was 10 to 100 nM; against AhR [3] (setting [7]) it was less than 10 nM. The inhibition at 0.123 µM on AhR [4] (setting [8]) was found to be 89.7%.

Take `OC[C@H]1CN(c2cc(-c3ccc(C(F)(F)F)cc3)nc(-c3cccnc3)n2)C[C@@H]1O` [Example 258, (3R,4R)-4-(hydroxymethyl)-1-(2-(pyridin-3-yl)-6-(4-(trifluoromethyl)phenyl)pyrimidin-4-yl)pyrrolidin-3-ol]: the IC50 on AhR [1] (setting [10]) and against AhR [3] (setting [7]) was less than 10 nM in each case. Further, the inhibition at 0.123 µM at AhR [4] (setting [8]) is 101%.

For `OC[C@H]1CN(c2cc(-c3ccc(C(F)(F)F)cc3)nc(-c3cccnc3)n2)CCO1` [Example 280, (R)-(4-(2-(pyridin-3-yl)-6-(4-(trifluoromethyl)phenyl)pyrimidin-4-yl)morpholin-2-yl)methanol], the half-inhibitory concentration (IC50) at AhR [1] (setting [10]) is 10 to 100 nM; against AhR [3] (setting [7]) it was less than 10 nM.

With `OC[C@@H]1CCN(c2cc(-c3ccc(Cl)cc3)nc(-c3cccnc3)n2)C[C@H]1F` [Example 282, ((3S,4S)-1-(6-(4-chlorophenyl)-2-(pyridin-3-yl)pyrimidin-4-yl)-3-fluoropiperidin-4-yl)methanol], the IC50 at AhR [1] (setting [10]) is 100 to 1000 nM; against AhR [3] (setting [7]), less than 10 nM. For the same compound, the figures for the half-maximal effective concentration (EC50) on AhR [2] (class in brackets of the cell) and on AhR [2] (number of the cell) were greater than 10000 nM and greater than 30000 nM, respectively.

On to `O[C@H]1CN(c2cc(-c3ccc(C(F)(F)F)cc3)nc(-c3cccnc3)n2)C[C@@H]1O` [Example 283, (3S,4S)-1-(2-(pyridin-3-yl)-6-(4-(trifluoromethyl)phenyl)pyrimidin-4-yl)pyrrolidine-3,4-diol], for which the IC50 on AhR [1] (setting [10]) was 10 to 100 nM; against AhR [3] (setting [7]), less than 10 nM. For the same compound, the EC50 at AhR [2] (class in brackets of the cell) was greater than 10000 nM; on AhR [2] (number of the cell), greater than 30000 nM.

For `Cn1cc(-c2nc(-c3ccc(C(F)(F)F)cc3)cc(N3CC[C@@H](C(=O)O)C3)n2)cn1` [Example 312, (R)-1-(2-(1-methyl-1H-pyrazol-4-yl)-6-(4-(trifluoromethyl)phenyl)pyrimidin-4-yl)pyrrolidine-3-carboxylic acid], on AhR [1] (setting [10]), the IC50 was greater than 1000 nM.

“(3R,4R)-1-(6-(4-chlorophenyl)-2-(pyridin-3-yl)pyrimidin-4-yl)pyrrolidine-3,4-diol [Example 230]”: the IC50 on AhR [1] (setting [5]) lay within 10 to 100 nM; on AhR [3] (read-out: Assay 1: AhR-Luc Human Antagonism (IC50), values marked *: kynurenine 50 μM, 6 hours), 10 to 100 nM.

With “(3R,4S)-1-(6-(4-chlorophenyl)-2-(pyridin-3-yl)pyrimidin-4-yl)pyrrolidine-3,4-diol [Example 231]”, the IC50 is 10 to 100 nM on AhR [1] (setting [5]) and less than 10 nM on AhR [3] (read-out: Assay 1: AhR-Luc Human Antagonism (IC50), unmarked values: kynurenine 200 μM, 6 hours). Also, the EC50 on AhR [2] (class in brackets of the cell) is greater than 10000 nM; at AhR [2] (number of the cell), greater than 30000 nM.

Usually IC50 stands for the concentration needed to halve the response being measured. In general, EC50 refers to the concentration that produces a half-maximal response. A word on the inhibition: it is the relative decrease from the control value, in per cent.
